# Experimental data from patent US11007248B2, “Suppression of allergic lung inflammation and hyperreactivity” (The Regents of the University of California, priority 2013, dated 2021).
# Where no end group is shown, it is not given here. The star is where a group is joined. Myristoyl = CCCCCCCCCCCCCC(=O)*
# Columns and labels:
# [1] = test system: OVA-allergic mouse airways; experiment: Airway resistance by invasive body plethysmography, murine OVA-allergic model; type: in vivo; conditions: peptide i.p. before OVA i.n. challenge
# Method: (§1) FIG. 2A: Murine OVA-allergic model.
# Experiments were carried out as described in FIG. 2A. At day 19, animals were collected for airway resistance as measured by invasive body plethysmography. Data are expressed as the mean±SEM values (n=3). # p<0.05, PBS+OVA compared with the PBS control. *p<0.05, MPS +OVA compared with the PBS+OVA group.
# [2] = test system: OVA-allergic mouse airways; experiment: Lung section histology (H&E, PAS), murine OVA-allergic model; type: in vivo; conditions: for allergic inflammation associated with allergen/ovalbumin-induced allergic airway disease: mouse
# Method: as §1
# FIGS. 4A-4B show MPS suppressed mucous cell metaplasia (stained by periodic acid stain (PAS)) and inflammatory cells in OVA-allergic mouse airways. Experiments were carried out as described in FIG. 2A. At day 19, animals were sacrificed and lung tissues were fixed for paraffin sections. FIG. 4A: Lung sections were stained by H&E, and PAS staining. Original magnification ×200. FIG. 4B: Quantification of the numbers of H&E-stained cells and PAS-stained cells, and the score of the Masson trichrome staining are presented in bar graphs. Data are expressed as mean±SEM values (n=6).
# phospho-STAT6 = experiment: IL-13-induced signaling in primary NHBE cells, western blot: phospho-STAT6; type: cell-based, human; conditions: air-liquid interface, peptide 50 μM for 4 hrs, then IL-13 20 ng/ml for one hour
# phospho-MARCKS = experiment: IL-13-induced signaling in primary NHBE cells, western blot: phospho-MARCKS; type: cell-based, human; conditions: air-liquid interface, peptide 50 μM for 4 hrs, then IL-13 20 ng/ml for one hour
# [3] = test system: antigen-presenting cells, dendritic cells (DCs); experiment: Homing of antigen-presenting dendritic cells to mediastinal lymph nodes, flow cytometry, Ova-induced allergic mouse asthma; type: in vivo; conditions: allergic animal model; OVA-DQ challenge day 15-18; CD11c+ cells in mediastinal lymph nodes
# Method: For detection of antigen specific DCs migration, mice were challenged with 150 μg OVA-DQ (Life Technologies, Grand Island, N.Y.) for one time per day at day 15-18. Cells were isolated from the mediastinal lymph nodes and lungs. Cells were stained with CD11c conjugated PEC-Cy7 (BD Bioscience, San Jose, Calif.) and analyzed by flow cytometry. Peptides used in this study were (wild type) MPS, A-MPS (mutant 2 in the figure) and D-MPS (mutant 1 in the FIG. 8).
# mucus secretion = conditions: previously reported, U.S. Patent Application Publication No. 2009/00220581; cited from earlier work
# p-Ser-159/163 MARCKS = conditions: MPS 154 μg/mouse/day i.p. day 10-14 prior to OVA i.n. exposure; IHC of lung tissue sections
# [4] = test system: inflammatory cell types in OVA-allergic mouse airways
# [5] = test system: BALF inflammatory cytokines (IL-4, IL-5, IL-13, eotaxin; IFN-γ); conditions: OVA-allergic mouse airways; MPS 154 μg/mouse/day i.p.; ELISA
# OVA-specific IgE = conditions: OVA-allergic mouse; MPS 154 μg/mouse/day i.p.; ELISA
# [6] = day 19, MPS+OVA vs PBS+OVA p<0.05
# [7] = OVA-allergic mouse airways, MPS 154 μg/mouse/day i.p., day 19
Substance,"airway hyper-reactivity (airway resistance) [1, 6]",allergic inflammation associated with allergen/ovalbumin-induced allergic airway disease [2],suppression of IL-13-induced phospho-STAT6 elevation (phospho-STAT6),suppression of IL-13-induced phospho-MARCKS elevation (phospho-MARCKS),lymph node homing of antigen presenting cells [3],mucus secretion (mucus secretion),"airway hyper-reactivity (airway resistance) ([1]; day 19, MPS+OVA vs PBS+OVA p<0.05, listed as (wild-type) MPS)","inflammatory cells in lung tissue (H&E) [2, 7]","mucous cell metaplasia (PAS stain) [2, 7]",MARCKS phosphorylation in OVA sensitizing mice (p-Ser-159/163 MARCKS),eosinophils (inflammatory response) ([4]; BALF differential cell counts),"presence of various inflammatory cell types in BALF ([4]; MPS 154 μg/mouse/day i.p., day 19)",Th1 cytokine (IFN-γ) in BALF [5],"Th2 cytokines (IL-4, IL-5, IL-13, eotaxin) in BALF [5]",serum OVA-specific IgE (OVA-specific IgE)
KKKKKRFDFKKDFKLDGFDFKKNKK [D-MPS],not seen,not seen,not,not,no suppressive effects,,,,,,,,,,
myristic acid—KKKKKRFSFKKSFKLSGFSFKKNKK (Myristoyl-KKKKKRFSFKKSFKLSGFSFKKNKK) [myristic acid-wild type MPS disclosed in U.S. 2009/00220581],,,,,,increased,,,,,,,,,
KKKKKRFSFKKSFKLSGFSFKKNKK [MPS],suppressed,able to suppress,very effective in the suppression,very effective in the suppression,inhibited,,able to suppress,suppressed,suppressed,effectively suppress,reduction,suppressed,not,suppressed specifically,suppressed
KKKKKRFAFKKAFKLAGFAFKKNKK [A-MPS],able to suppress,able to suppress,very effective in the suppression,very effective in the suppression,inhibited,,,,,,,,,,
